Reference: US10208034B2, “Quinoline derivative” (ONO PHARMACEUTICAL CO., LTD., priority 2014, dated 2019)

Key:
[1] = molecular target: T1, Ba/F3 Axl (Homo sapiens, UniProt P30530); test: Proliferation suppression rate using mouse pro-B cell line (Ba/F3 Axl) stably expressing Axl (CellTiter-Glo); assay type: cell-based; details: Ba/F3 Axl cells, 48 hours, read-out: IC50 value of proliferation suppression, Ba/F3 Axl
T1 sequence (P30530 1-894): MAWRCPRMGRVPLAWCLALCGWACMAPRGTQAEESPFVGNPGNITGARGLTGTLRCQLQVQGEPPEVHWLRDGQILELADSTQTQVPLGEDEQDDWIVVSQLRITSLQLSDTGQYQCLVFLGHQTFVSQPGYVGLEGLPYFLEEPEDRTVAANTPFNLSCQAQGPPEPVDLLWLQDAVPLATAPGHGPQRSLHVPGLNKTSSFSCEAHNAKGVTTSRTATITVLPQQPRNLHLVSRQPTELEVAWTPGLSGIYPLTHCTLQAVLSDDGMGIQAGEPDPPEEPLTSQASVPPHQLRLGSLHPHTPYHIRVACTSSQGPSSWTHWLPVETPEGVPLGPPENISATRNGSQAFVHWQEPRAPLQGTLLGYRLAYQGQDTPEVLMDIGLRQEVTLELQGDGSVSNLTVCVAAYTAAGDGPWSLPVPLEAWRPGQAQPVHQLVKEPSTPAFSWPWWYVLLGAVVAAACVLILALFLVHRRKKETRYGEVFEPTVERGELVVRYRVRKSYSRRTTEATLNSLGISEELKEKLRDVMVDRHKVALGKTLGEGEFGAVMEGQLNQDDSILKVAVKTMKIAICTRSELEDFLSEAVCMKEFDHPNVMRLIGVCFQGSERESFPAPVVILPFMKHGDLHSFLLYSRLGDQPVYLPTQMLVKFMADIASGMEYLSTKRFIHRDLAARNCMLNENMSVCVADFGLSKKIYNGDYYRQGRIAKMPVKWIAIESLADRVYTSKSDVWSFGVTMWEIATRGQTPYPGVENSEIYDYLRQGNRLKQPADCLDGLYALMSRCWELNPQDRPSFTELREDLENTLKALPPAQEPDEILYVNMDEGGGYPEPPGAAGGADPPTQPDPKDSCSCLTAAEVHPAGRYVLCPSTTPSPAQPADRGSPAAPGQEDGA
Description: A 0.1 mmol/L DMSO solution of the test compound was dispensed into a 96-well plate, and a 3-fold dilution series was prepared using DMSO. DMSO solutions of test compounds, having various concentrations, were further 500-fold diluted with a RPMI1640 medium (containing 10% HI-FBS, 1% penicillin) and a diluted solution of the test compound having […] with respect to the final concentration was prepared. In each well of the 96-well plate (BD Biosciences) for measurement, 50 μL of a RPMI medium was added to the Blank group, 50 μL of a RPMI medium containing 0.2% DMSO was added to the medium group, and 50 μL of the diluted solution of the test compound was added to the test compound group, respectively. Ba/F3 Axl was diluted with a medium to have a density of 2×10^5 cells/mL to prepare a cell suspension. In each well of the 96-well plate for measurement, 50 μL each of the RPMI medium was added to the Blank group, and 50 μL each of the cell suspension to the medium group and the test compound group, respectively, and the groups were stood still at 37° C. at 5% CO2 for 48 hours. After standing still, Relative Light Unit (RLU) was measured by using CELLTITER-GLO (registered trademark) LUMINESCENT CELL VIABILITY ASSAY (Promega). The measurement was carried out according to the attached instruction. To each well, 100 μL each of light-emitting solution was added. The plate was stirred at room temperature for 3 min and then stool still at room temperature with light shielded for 10 min, and RLU was measured by using Microplate Reader (SpectraMax M5e, Molecular Devices). The average values of RLU of the Blank group and the medium group were respectively calculated, and the proliferation suppression rate of the test compound group was calculated. Proliferation suppression rate (%)={1−(RLU of test compound group−A)/(B−A)}×100 [Math. 2] A: average value of RLU of Blank group B: average value of RLU of medium group
A value of 50% inhibition rate (IC50 value) of the test compound was calculated from the inhibition curve based on the inhibition rate in each concentration of the test compound.

[2] = molecular target: KDR kinase (Homo sapiens, UniProt P35968); test: Evaluation of kinase selectivity (KDR kinase IC50 versus Axl IC50, in vitro test); assay type: biochemical; details: Axl selective inhibitory activity with respect to KDR kinase, ratio of IC50 values
KDR kinase, sequence (P35968 20-1356): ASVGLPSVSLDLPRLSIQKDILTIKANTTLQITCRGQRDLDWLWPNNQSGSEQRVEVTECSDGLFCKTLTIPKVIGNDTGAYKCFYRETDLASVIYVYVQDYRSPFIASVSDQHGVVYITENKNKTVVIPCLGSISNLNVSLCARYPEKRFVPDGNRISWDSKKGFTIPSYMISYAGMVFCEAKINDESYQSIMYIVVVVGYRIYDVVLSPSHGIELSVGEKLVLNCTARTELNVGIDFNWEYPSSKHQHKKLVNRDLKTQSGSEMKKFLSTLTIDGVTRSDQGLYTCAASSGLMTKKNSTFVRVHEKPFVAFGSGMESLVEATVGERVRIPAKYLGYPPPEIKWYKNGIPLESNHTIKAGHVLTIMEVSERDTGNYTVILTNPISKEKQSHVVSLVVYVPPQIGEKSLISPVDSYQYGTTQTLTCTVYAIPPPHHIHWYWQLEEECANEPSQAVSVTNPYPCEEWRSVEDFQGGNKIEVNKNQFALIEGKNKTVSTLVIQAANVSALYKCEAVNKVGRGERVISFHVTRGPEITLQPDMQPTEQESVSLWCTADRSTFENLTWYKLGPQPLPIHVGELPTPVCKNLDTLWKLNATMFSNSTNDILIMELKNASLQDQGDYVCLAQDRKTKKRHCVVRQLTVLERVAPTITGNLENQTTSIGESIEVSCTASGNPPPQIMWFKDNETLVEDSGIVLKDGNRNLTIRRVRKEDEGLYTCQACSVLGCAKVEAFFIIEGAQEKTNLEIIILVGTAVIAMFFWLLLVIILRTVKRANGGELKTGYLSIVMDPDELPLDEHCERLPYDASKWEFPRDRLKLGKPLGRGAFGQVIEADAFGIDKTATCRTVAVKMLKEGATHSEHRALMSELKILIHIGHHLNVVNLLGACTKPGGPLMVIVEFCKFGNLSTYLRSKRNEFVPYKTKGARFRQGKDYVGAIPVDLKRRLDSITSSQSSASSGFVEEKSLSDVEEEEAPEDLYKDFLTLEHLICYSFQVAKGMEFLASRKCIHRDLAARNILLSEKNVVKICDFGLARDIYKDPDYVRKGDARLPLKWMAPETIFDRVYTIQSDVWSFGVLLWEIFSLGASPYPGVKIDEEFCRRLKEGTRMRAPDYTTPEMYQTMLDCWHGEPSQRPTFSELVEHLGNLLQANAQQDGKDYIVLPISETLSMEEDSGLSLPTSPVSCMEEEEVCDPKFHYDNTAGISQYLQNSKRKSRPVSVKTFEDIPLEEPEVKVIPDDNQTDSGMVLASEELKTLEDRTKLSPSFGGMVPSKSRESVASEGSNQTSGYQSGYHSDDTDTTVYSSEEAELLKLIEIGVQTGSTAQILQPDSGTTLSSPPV
Description: Similar to Biological Example 1, values of 50% inhibition rate (IC50 value) with respect to the KDR kinase of the test compound was measured. The Axl selective inhibitory activity of the test compound with respect to KDR kinase was calculated based on the above-mentioned ratio of the IC50 values. As the test compounds, for the compounds of the present invention, the compounds of Examples 21, 42, 66, and 28 were used, and for the comparative compounds, the compound of Example 74 (Comparative compound B) and the compound of Example 92 (Comparative compound C) described in Patent Literature 5, having the following structure, were used.

GI50 [1] [nM] | KDR [IC50]/Ax1 [IC50] [2] | SMILES
0.96 | about 149 times | COc1cc2nccc(Oc3ccc(NC(=O)c4cc(C(C)=O)cn(-c5ccccc5)c4=O)nc3)c2cc1OC [Example 21, 5-acetyl-N-{5-[(6,7-dimethoxy-4-quinolinyl)oxy]-2-pyridinyl}-2-oxo-1-phenyl-1,2-dihydro-3-pyridinecarboxamide]
0.99 | about 294 times | COc1cc2nccc(Oc3ccc(NC(=O)c4cc5ccncc5n(-c5ccccc5)c4=O)nc3)c2cc1OC [Example 28, N-{5-[(6,7-dimethoxy-4-quinolinyl)oxy]-2-pyridinyl}-2-oxo-1-phenyl-1,2-dihydro-1,7-naphthyridine-3-carboxamide]
4.2 | about 2857 times | COc1cc2nccc(Oc3ccc(NC(=O)c4c5c(cn(-c6ccccc6)c4=O)C(=O)CCC5)nc3)c2cc1OC [Example 42, N-{5-[(6,7-dimethoxy-4-quinolinyl)oxy]-2-pyridinyl}-3,8-dioxo-2-phenyl-2,3,5,6,7,8-hexahydro-4-isoquinolinecarboxamide]
5.7 | about 1401 times | COc1cc2nccc(Oc3ccc(NC(=O)c4cc5c(n(-c6ccccc6)c4=O)CCCNC5=O)nc3)c2cc1OC [Example 66, N-{5-[(6,7-dimethoxy-4-quinolinyl)oxy]-2-pyridinyl}-2,5-dioxo-1-phenyl-2,5,6,7,8,9-hexahydro-1H-pyrido[3,2-c]azepine-3-carboxamide]
